Data reported in patent US20200407365A1, “INDOLE-2-CARBONYL COMPOUNDS AND THEIR USE FOR THE TREATMENT OF HEPATITIS B” (Novartis AG, priority 2018, published 2020).

Tested on: HBV replication in HepG2.cl42 cells
Assay: Anti-HBV assay (HBV DNA by quantitative real time PCR in HepG2.cl42 cells)
Assay type: cell-based, HBV ayw strain
Conditions: Hepatitis B virus, 96 h, compound treatment four days, read-out: HBsAg EC50

Compound	EC50 [µM]
CC1(C)CCN(c2cnn3c2CN(C(=O)c2cc4ccccc4[nH]2)CC3)C1=O [Compound 1.1, 1-(5-(1H-indole-2-carbonyl)-4,5,6,7-tetrahydropyrazolo[1,5-a]pyrazin-3-yl)-3,3-dimethylpyrrolidin-2-one]	> 1
CC1(C)CC(=O)N(c2cnn3c2CN(C(=O)c2cc4ccccc4[nH]2)CC3)C1 [Compound 1.2]	0.1 to 1
COC[C@@H]1CN(c2cnn3c2CN(C(=O)c2cc4ccccc4[nH]2)CC3)C(=O)CO1 [Compound 1.3]	0.1 to 1
O=C(c1cc2ccccc2[nH]1)N1CCn2ncc(N3CCOCC3=O)c2C1 [Compound 1.4]	0.1 to 1
CC1(C)CN(c2cnn3c2CN(C(=O)c2cc4ccccc4[nH]2)CC3)C(=O)CO1 [Compound 1.5]	0.1 to 1
O=C(c1cc2ccccc2[nH]1)N1CCn2ncc(N3CCCCC3=O)c2C1 [Compound 1.6]	0.1 to 1
CC1(C)CN(c2cnn3c2CN(C(=O)c2cc4ccccc4[nH]2)CC3)C(=O)O1 [Compound 2.1, 3-(5-(1H-indole-2-carbonyl)-4,5,6,7-tetrahydropyrazolo[1,5-a]pyrazin-3-yl)-5,5-dimethyloxazolidin-2-one]	< 0.1
Cc1c(C(=O)N2CCn3ncc(N4CC(C)(C)OC4=O)c3C2)[nH]c2ccccc12 [Compound 2.2]	> 1
CCc1c(C(=O)N2CCn3ncc(N4CC(C)(C)OC4=O)c3C2)[nH]c2ccccc12 [Compound 2.3]	> 1
CC1(C)CN(c2cnn3c2CN(C(=O)c2[nH]c4ccccc4c2C#N)CC3)C(=O)O1 [Compound 2.4]	> 1
CC1(C)CN(c2cnn3c2CN(C(=O)c2[nH]c4ccccc4c2Cl)CC3)C(=O)O1 [Compound 2.5]	> 1
CC1(C)CN(c2cnn3c2CN(C(=O)c2cc4cc(F)ccc4[nH]2)CC3)C(=O)O1 [Compound 2.6]	< 0.1
CC1(C)CN(c2cnn3c2CN(C(=O)c2cc4ccc(F)cc4[nH]2)CC3)C(=O)O1 [Compound 2.7]	< 0.1
CC1(C)CN(c2cnn3c2CN(C(=O)c2cc4ccc(Cl)cc4[nH]2)CC3)C(=O)O1 [Compound 2.8]	< 0.1
CC1(C)CN(c2cnn3c2CN(C(=O)c2cc4cccc(Cl)c4[nH]2)CC3)C(=O)O1 [Compound 2.9]	0.1 to 1
COc1ccc2[nH]c(C(=O)N3CCn4ncc(N5CC(C)(C)OC5=O)c4C3)cc2c1 [Compound 2.10]	> 1
CC1(C)CN(c2cnn3c2CN(C(=O)c2cc4ccc(C#N)cc4[nH]2)CC3)C(=O)O1 [Compound 2.11]	0.1 to 1

Compound	EC50 [µM]
Cc1ccc2cc(C(=O)N3CCn4ncc(N5CC(C)(C)OC5=O)c4C3)[nH]c2c1 [Compound 2.12]	< 0.1
COc1ccc2cc(C(=O)N3CCn4ncc(N5CC(C)(C)OC5=O)c4C3)[nH]c2c1 [Compound 2.13]	0.1 to 1
Cc1cccc2[nH]c(C(=O)N3CCn4ncc(N5CC(C)(C)OC5=O)c4C3)cc12 [Compound 2.14]	< 0.1
Cc1ccc2[nH]c(C(=O)N3CCn4ncc(N5CC(C)(C)OC5=O)c4C3)cc2c1 [Compound 2.15]	0.1 to 1
CC1(C)CN(c2cnn3c2CN(C(=O)c2cc4cc(Cl)ccc4[nH]2)CC3)C(=O)O1 [Compound 2.16]	0.1 to 1
CC1(C)CN(c2cnn3c2CN(C(=O)c2cc4cccc(F)c4[nH]2)CC3)C(=O)O1 [Compound 2.17]	0.1 to 1
Cc1cccc2cc(C(=O)N3CCn4ncc(N5CC(C)(C)OC5=O)c4C3)[nH]c12 [Compound 2.18]	0.1 to 1
COc1cccc2cc(C(=O)N3CCn4ncc(N5CC(C)(C)OC5=O)c4C3)[nH]c12 [Compound 2.19]	> 1
CC1(C)CN(c2cnn3c2CN(C(=O)c2cc4c(Cl)cccc4[nH]2)CC3)C(=O)O1 [Compound 2.20]	< 0.1
CC1(C)CN(c2cnn3c2CN(C(=O)c2cc4cnc(Cl)cc4[nH]2)CC3)C(=O)O1 [Compound 2.21]	0.1 to 1
CC1(C)CN(c2cnn3c2CN(C(=O)c2cc4c(F)cccc4[nH]2)CC3)C(=O)O1 [Compound 2.22]	< 0.1
C[C@H]1Cn2ncc(N3CC(C)(C)OC3=O)c2CN1C(=O)c1cc2ccccc2[nH]1 [Compound 2.23]	> 1
COC[C@H]1CN(c2cnn3c2CN(C(=O)c2cc4ccccc4[nH]2)CC3)C(=O)O1 [Compound 3.1, (R)-3-(5-(1H-indole-2-carbonyl)-4,5,6,7-tetrahydropyrazolo[1,5-a]pyrazin-3-yl)-5-(methoxymethyl)oxazolidin-2-one]	< 0.1
COC[C@@H]1CN(c2cnn3c2CN(C(=O)c2cc4ccccc4[nH]2)CC3)C(=O)O1 [Compound 3.2]	0.1 to 1
CC1(C)COC(=O)N(c2cnn3c2CN(C(=O)c2cc4ccccc4[nH]2)CC3)C1 [Compound 3.3]	0.1 to 1
O=C(c1cc2ccccc2[nH]1)N1CCc2noc(N3CCCCC3=O)c2C1 [Compound 4.1, 1-(5-(1H-indole-2-carbonyl)-4,5,6,7-tetrahydroisoxazolo[4,3-c]pyridin-3-yl)piperidin-2-one]	< 0.1
